Measurements from EP4635969A1, “NOVEL GLUCOCORTICOID, METHOD FOR PREPARING SAME, AND USE THEREOF” (Tianjin Pharmaceutical Biotechnology Co., Ltd., priority 2022, dated 2024).
Like-named read-outs stand apart in the source and are kept apart here.

Tests used:
[1] = Determination of stability in plasma in vitro, human plasma (LC-MS/MS); format: in vitro ADME; settings: same experimental conditions (human and mouse plasma)
Protocol: Pharmacological Example 3: Determination of Stability in Plasma in Vitro
The stock solution was diluted with acetonitrile to obtain a working solution at a concentration of 100 µ M. The solution should be freshly prepared prior to use and maintained at room temperature during application.
990 µ L of human and mouse plasma (N = 2) were separately pipetted and pre-incubated at 37 °C for 5 min. Then, 10 µ L of the test compound working solution was added and vortexed thoroughly (the final concentration of the test compound was 1 µ M). Immediately, 50 µ L of the plasma sample was added to 150 µ L of ice-cold precipitation agent containing the internal standard and vortexed thoroughly as the 0-time sample. The remaining plasma sample was continuously incubated at 37 °C, and 50 µ L of the plasma sample was aspirated and added to 150 µ L of ice-cold precipitation agent containing the internal standard at preset sampling time points, followed by thorough vortexing. The collected samples were stored in a freezer at -60 to -90 °C until analysis.
The concentration of the test compound was determined by LC-MS/MS, and its degradation was monitored. (semi-quantitative determination was conducted by comparing the peak area of the analyte to that of the internal standard).

[2] = target: T1, progesterone receptor (PR) (Homo sapiens, UniProt P06401); experiment: Assay for agonist activity on progesterone receptor (luciferase reporter, HEK293 cells transfected with pBIND-PR plasmid); format: cell-based; settings: for Target selectivity PR/GR: ratio of EC50 values
T1 sequence (P06401 678-933): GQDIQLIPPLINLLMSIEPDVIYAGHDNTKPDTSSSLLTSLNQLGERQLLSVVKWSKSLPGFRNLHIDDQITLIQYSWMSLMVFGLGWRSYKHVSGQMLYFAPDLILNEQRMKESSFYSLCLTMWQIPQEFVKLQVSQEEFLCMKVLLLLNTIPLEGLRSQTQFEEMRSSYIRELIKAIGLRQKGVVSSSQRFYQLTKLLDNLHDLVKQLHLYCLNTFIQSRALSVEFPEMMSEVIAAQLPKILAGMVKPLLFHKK
Method in brief: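 HEK293 cells transiently transfected with pBIND-MR or pBIND-PR, seeded in phenol red-free DMEM with 5% charcoal-stripped serum. Compounds tested as 12-point 4-fold dilutions from 50 µM in duplicate, 0.1% DMSO blank. Luciferase luminescence read, EC50 by nonlinear fit.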

epidermal layer in rats = experiment: Adverse reactions of continuous dermal administration: thickness of the epidermal layer (H&E sections); format: in vivo, SD rats; settings: for thickness of the epidermal layer after continuous dermal administration: compared with the blank control group
Source text: Pharmacological Example 10: Experiment on Adverse Reactions of Continuous Dermal Administration in Rats
Animals: SD rats, SPF grade, with an equal number of males and females, weighing 230-250 g.
Animal grouping: After adaptive feeding, the rats were randomly divided into 4 groups. […] One day before administration, the backs of rats were shaved at an area of 5 cm × 6 cm. […] The rats in the blank control group were applied with the blank matrix of corresponding mass on their backs, twice a day for a consecutive week. Table 21. Animal grouping and drug administration dosages for the experiment on adverse reactions of continuous dermal administration in rats
To examine the effects of continuous administration of the test samples on the epidermal layer, the back skin tissues were stained with hematoxylin and eosin (H&E) (magnification ×40), and the thickness of the epidermal layer was quantitatively measured based on the H&E-stained sections.

Row | Structure (SMILES) | plasma instability [1] | EC50 ([2]; EC50 of agonist activity, HEK293 reporter cells, top concentration 50 µM, read-out: Nuclear receptor enzyme activity (nM) PR) [nM] | Target selectivity PR/GR [2] | Epidermal layer thickness (µm) (epidermal layer in rats; 100 mg cream on the back twice a day for a week (compounds 1 mg/g, Compound Dexamethasone Acetate 0.75 mg/g)) | thickness of the epidermal layer after continuous dermal administration (epidermal layer in rats) | EC50 [2] [nM]
1 | C[C@]12C=CC(=O)C=C1CC[C@H]1[C@@H]3C[C@H]4OC(c5ccc(CSC6CCOC6=O)cc5)O[C@@]4(C(=O)CO)[C@@]3(C)C[C@H](O)[C@@]12Cl (stereo partly drawn) [Compound 23, (6aS,6bR,7S,8aS,8bS,11aR,12aS,12bS)-6b-Chloro-7-hydroxy-8b-(2-hydroxyacetyl)-6a,8a-dimethyl-10-(4-(((2-oxotetrahydrofuran-3-yl)thio)methyl)phenyl)-1,2,6a,6b,7,8,8a,8b,11a,12,12a,12b-do decahydro-4H-naphtho[2',1':4,5]indeno[1,2-d][1,3]dioxol-4-one] | exhibited the characteristic of plasma instability | > 50000 | > 2.4×10^5 | 24.3 ± 1.1 | no significant changes in the thickness of the epidermal layer were observed | 
2 | C[C@]12C=CC(=O)C=C1[C@@H](F)C[C@H]1[C@@H]3C[C@H]4OC(c5ccc(CSC6CCOC6=O)cc5)O[C@@]4(C(=O)SCF)[C@@]3(C)C[C@H](O)[C@@]12F (stereo partly drawn) [Compound 34, S-(Fluoromethyl) (2S,6aS,6bR,7S,8aS,8bS,11aR,12aS,12bS)-2,6b-difluoro-7-hydroxy-6a,8a-dimethyl-4-oxo-10-(4-( ((2-oxotetrahydrofuran-3-yl)thio)methyl)phenyl)-1,2,4,6a,6b,7,8,8a,11a,12,12a,12b-dodecahydro-8bH-naphtho[2',1':4,5]indeno[1,2-d][1,3]dioxole-8b-carbothioate] | exhibited the characteristic of plasma instability |  | > 5.0×10^5 |  | no significant changes in the thickness of the epidermal layer observed | > 50000
3 | C[C@]12C=CC(=O)C=C1[C@@H](F)C[C@H]1[C@@H]3C[C@H]4OC(c5ccc(CSC6CCOC6=O)cc5)O[C@@]4(C(=O)SCC#N)[C@@]3(C)C[C@H](O)[C@@]12F (stereo partly drawn) [Compound 35, S-(Cyanomethyl) (2S,6aS,6bR,7S,8aS,8bS,11aR,12aS,12bS)-2,6b-difluoro-7-hydroxy-6a,8a-dimethyl-4-oxo-10-(4-( ((2-oxotetrahydrofuran-3-yl)thio)methyl)phenyl)-1,2,4,6a,6b,7,8,8a,11a,12,12a,12b-dodecahydro-8bH-naphtho[2',1':4,5]indeno[1,2-d][1,3]dioxole-8b-carbothioate] | exhibited the characteristic of plasma instability |  | > 2.4×10^5 |  | no significant changes in the thickness of the epidermal layer observed | > 50000
4 | C[C@]12C=CC(=O)C=C1[C@@H](F)C[C@H]1[C@@H]3C[C@H]4OC(c5ccc(CSC6CCOC6=O)cc5)O[C@@]4(C(=O)OCF)[C@@]3(C)C[C@H](O)[C@@]12F (stereo partly drawn) [Compound 36, Fluoromethyl (2S,6aS,6bR,7S,8aS,8bS,11aR,12aS,12bS)-2,6b-difluoro-7-hydroxy-6a,8a-dimethyl-4-oxo-10-(4-( ((2-oxotetrahydrofuran-3-yl)thio)methyl)phenyl)-1,2,4,6a,6b,7,8,8a,11a,12,12a,12b-dodecahydro-8bH-naphtho[2',1':4,5]indeno[1,2-d][1,3]dioxole-8b-carboxylate] | exhibited the characteristic of plasma instability |  | > 4.2×10^5 |  | no significant changes in the thickness of the epidermal layer observed | > 50000
5 | C[C@]12C=CC(=O)C=C1CC[C@H]1[C@@H]3C[C@H]4OC(c5ccc(CSC6CCOC6=O)nc5)O[C@@]4(C(=O)CO)[C@@]3(C)C[C@H](O)[C@@]12F (stereo partly drawn) [Compound 47, (6aS,6bR,7S,8aS,8bS,11aR,12aS,12bS)-6b-Fluoro-7-hydroxy-8b-(2-hydroxyacetyl)-6a,8a-dimethyl-10-(6-(((2-oxotetrahydrofuran-3-yl)thio)methyl)pyridin-3-yl)-1,2,6a,6b,7,8,8a,8b,11a,12,12a,12 b-dodecahydro-4H-naphtho[2',1':4,5]indeno[1,2-d][1,3]dioxol-4-one] | exhibited the characteristic of plasma instability |  | > 1.5×10^5 |  | no significant changes in the thickness of the epidermal layer observed | > 50000
